# From PubChem BioAssay (NCI)
#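 Five concentrations, 48 hours, 96-well plates. At the TGI there is no net growth.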
# Columns and labels:
# Test in all cases: NCI anticancer screen, dose series, 48 h
# ACHN renal = system: ACHN renal
# CCRF-CEM leukemia = system: CCRF-CEM leukemia
# COLO 205 colon = system: COLO 205 colon
# HCT-116 colon = system: HCT-116 colon
# HS 578T breast = system: HS 578T breast
# HT29 colon = system: HT29 colon
# K-562 leukemia = system: K-562 leukemia
# M14 melanoma = system: M14 melanoma
# MDA-MB-231 breast = system: MDA-MB-231 breast
# MOLT-4 leukemia = system: MOLT-4 leukemia
# NCI-H460 lung = system: NCI-H460 lung
# NCI-H522 lung = system: NCI-H522 lung
# OVCAR-4 ovarian = system: OVCAR-4 ovarian
# OVCAR-5 ovarian = system: OVCAR-5 ovarian
# RPMI-8226 leukemia = system: RPMI-8226 leukemia
# RXF 393 renal = system: RXF 393 renal
# SF-295 CNS = system: SF-295 CNS
# SK-MEL-5 melanoma = system: SK-MEL-5 melanoma
# SN12C renal = system: SN12C renal
SMILES,TGI (ACHN renal) [µM],TGI (CCRF-CEM leukemia) [µM],TGI (COLO 205 colon) [µM],TGI (HCT-116 colon) [µM],TGI (HS 578T breast) [µM],TGI (HT29 colon) [µM],TGI (K-562 leukemia) [µM],TGI (M14 melanoma) [µM],TGI (MDA-MB-231 breast) [µM],TGI (MOLT-4 leukemia) [µM],TGI (NCI-H460 lung) [µM],TGI (NCI-H522 lung) [µM],TGI (OVCAR-4 ovarian) [µM],TGI (OVCAR-5 ovarian) [µM],TGI (RPMI-8226 leukemia) [µM],TGI (RXF 393 renal) [µM],TGI (SF-295 CNS) [µM],TGI (SK-MEL-5 melanoma) [µM],TGI (SN12C renal) [µM]
NC(CCl)=NC1CN2CCC1CC2 (stereo unspecified),> 100,> 100,73.8,> 100,> 100,> 100,> 100,> 100,> 100,> 100,> 100,58,> 100,> 100,> 100,> 100,> 100,> 100,> 100
N#Cc1ccc(OC(=O)c2ccc(N=C(N)N)cc2)cc1,> 100,54.8,> 100,> 100,> 100,> 100,> 100,> 100,> 100,> 100,> 100,> 100,> 100,> 100,> 100,> 100,> 100,> 100,> 100
COc1cc(CCNC2=CC(=O)c3cccnc3C2=O)ccc1O,5.61,25.9,3,4.8,3.56,4.38,2.15,2.98,2.08,18.2,2.65,2.26,3.87,2.99,5.2,4.07,2.6,1.08,2.43
c1ccc2c(c1)nc1n2CCNC1,> 100,> 100,> 100,> 100,> 100,> 100,> 100,> 100,> 100,> 100,> 100,–,> 100,> 100,> 100,> 100,> 100,> 100,> 100
C[C@]12CC[C@H](O)CC1=CC[C@@H]1C2CC[C@]2(C)c3nn(-c4ccc(F)cc4)nc3CC12 (stereo partly specified),> 100,> 100,> 100,> 100,> 100,73,> 100,> 100,> 100,> 100,> 100,> 100,> 100,> 100,–,> 100,> 100,> 100,> 100
Cc1c(C#N)c2nnn(-c3ccc([N+](=O)[O-])cc3)c(=O)n2c1-c1ccccc1,16.4,> 100,22.9,19,> 100,23.7,30.6,25,34.7,–,26.5,13.9,27.5,40.1,> 100,31.2,14,25.2,24.9
